Target: T1, Human TRPV3 (Homo sapiens, UniProt Q8NET8)
T1 construct: expressed in transfected cells; host or cells: CHO cells
T1 sequence (Q8NET8 1-790): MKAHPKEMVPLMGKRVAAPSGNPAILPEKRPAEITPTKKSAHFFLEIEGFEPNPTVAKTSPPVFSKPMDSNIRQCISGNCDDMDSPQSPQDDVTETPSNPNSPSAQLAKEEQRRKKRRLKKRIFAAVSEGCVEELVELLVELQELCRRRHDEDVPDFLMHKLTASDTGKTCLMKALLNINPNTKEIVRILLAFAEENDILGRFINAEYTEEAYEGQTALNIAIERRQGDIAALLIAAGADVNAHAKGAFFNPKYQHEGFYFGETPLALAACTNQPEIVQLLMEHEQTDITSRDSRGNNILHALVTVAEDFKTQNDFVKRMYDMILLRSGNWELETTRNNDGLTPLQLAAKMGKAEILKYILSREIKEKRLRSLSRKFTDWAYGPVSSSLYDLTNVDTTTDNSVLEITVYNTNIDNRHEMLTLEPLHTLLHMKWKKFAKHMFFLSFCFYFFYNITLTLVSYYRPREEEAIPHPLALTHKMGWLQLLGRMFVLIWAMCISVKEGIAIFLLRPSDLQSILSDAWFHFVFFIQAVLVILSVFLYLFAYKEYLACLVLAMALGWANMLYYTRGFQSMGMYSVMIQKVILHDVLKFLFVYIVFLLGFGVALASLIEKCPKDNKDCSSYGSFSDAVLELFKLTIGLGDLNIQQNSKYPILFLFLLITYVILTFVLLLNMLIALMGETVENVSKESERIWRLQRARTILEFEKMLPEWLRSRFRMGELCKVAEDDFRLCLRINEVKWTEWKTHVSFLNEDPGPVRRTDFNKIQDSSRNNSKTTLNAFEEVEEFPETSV
Test: 45Calcium uptake assay: inhibition of 2-APB induced cellular uptake of radioactive calcium in human TRPV3 expressing CHO cells
Assay type: cell-based
Conditions: 2-APB 500 μM
Excerpt: The illustrative examples of the present invention are screened for TRPV3 activity according to a modified procedure described in (a) Tóth, A. et al. Life Sciences 2003, 73, 487-498. (b) McNamara C, R. et al. Proc. Natl. Acad. Sci. U.S.A., 2007, 104, 13525-13530. The screening of the compounds can be carried out by other methods and procedures known to persons skilled in the art.
Screening for TRPV3 Antagonist Using the ^45Calcium Uptake Assay
The inhibition of TRPV3 receptor activation was followed as inhibition of 2-aminoethxydiphenylborate (2-APB) induced cellular uptake of radioactive calcium. Test compounds were dissolved in dimethyl sulfoxide (DMSO) to prepare 20 mM stock solution and then diluted using plain medium with DMEM/F-12 containing 1.8 mM CaCl2 to get desired concentration. Final concentration of DMSO in the reaction was 0.5% (v/v). Human TRPV3 expressing CHO cells were grown in DMEM/F-12 medium with 10% FBS, 1% penicillin-streptomycin solution, 400 μg/mL of G-418. Cells were seeded 24 h prior to the assay in 96 well plates so as to get ˜50,000 cells per well on the day of experiment. Cells were treated with test compounds for 10 minutes followed by addition of 2-APB at a final concentration of 500 μM and 5 μCi/mL ^45Ca^+2 for 4 minutes. Cells were washed and lysed using buffer containing 1% Triton X-100, 0.1% deoxycholate and 0.1% SDS. Radioactivity in the lysate was measured in Packardt Top count after addition of liquid scintillant. Concentration response curves were plotted as a % of maximal response obtained in the absence of test antagonist. IC50 value was calculated from concentration response curve by nonlinear regression analysis using GraphPad PRISM software.
Percentage inhibition at concentrations of 1.0 μM and 10.0 μM are given in the table along with IC50 (nM) values for selected examples.

`COc1cccc(/C=C/c2oc3cc(F)ccc3c(=O)c2-c2ccc(C#N)cc2)c1OCCC(F)(F)F` [Example 14, 4-(7-Fluoro-2-{(E)-2-[3-methoxy-2-(3,3,3-trifluoropropoxy)phenyl]-1-ethenyl}-4-oxo-4H-3-chromenyl)benzonitrile] was tested, and the inhibition at 1 µM (1.0 μM test compound, read-out: Percentage inhibition at 1.0 μM) was 96%, the inhibition at 10 µM (10.0 μM test compound, read-out: Percentage inhibition at 10.0 μM) was 98.7% and the IC50 was 150 to 1000 nM.

Source: patent US20110237659A1, “CHROMENONE DERIVATIVES AS TRPV3 ANTAGONISTS” (GLENMARK PHARMACEUTICALS S.A., priority 2008, published 2011)
